For three molecules, IC50 results are on record in patent publication US8153818B2, “Triazolyl phenyl benzenesulfonamides” (ChemoCentryx, Inc., priority 2006, dated 2012).

In the test the target is T1, CCR2 (Homo sapiens, UniProt P41597).
T1 construct: CCR2 expressing THP-1 cells were centrifuged and resuspended in assay buffer; host or cells: THP-1
T1 sequence (P41597 1-360 isoform P41597-2): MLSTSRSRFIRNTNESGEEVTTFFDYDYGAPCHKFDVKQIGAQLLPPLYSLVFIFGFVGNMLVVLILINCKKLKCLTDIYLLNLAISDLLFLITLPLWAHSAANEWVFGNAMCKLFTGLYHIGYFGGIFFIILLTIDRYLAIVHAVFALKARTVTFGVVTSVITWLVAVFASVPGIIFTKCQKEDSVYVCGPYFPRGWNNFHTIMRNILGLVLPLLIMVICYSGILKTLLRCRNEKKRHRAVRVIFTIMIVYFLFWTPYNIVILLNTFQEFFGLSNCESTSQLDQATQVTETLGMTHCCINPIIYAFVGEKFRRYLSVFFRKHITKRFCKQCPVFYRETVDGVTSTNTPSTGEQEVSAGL
The experiment in a line: CCR2 activity in one of the chemotaxis, binding or calcium mobilization assays. It counts as cell-based. The settings on record: assay not specified per compound. How it is done:
Conventional migration assay was used to determine the efficacy of potential receptor antagonists in blocking migration mediated through chemokines (such as CCR2 or CCR9). This assay was routinely performed using the ChemoTX® microchamber system with a 5-μm pore-sized polycarbonate membrane. To begin such an assay, chemokine expressing cells (such as THP-1 cells for CCR2 assay or MOLT-4 cells for CCR9 assay) were harvested by centrifugation of cell suspension at 1000 RPM on a GS-6R Beckman centrifuge. The cell pellet was resuspended in chemotaxis buffer (HBSS with 0.1% BSA) at 10×10^6 cells/mL for CCR2 assay (5×10^6 cells/mL for CCR9 assay). Test compounds at desired concentrations were prepared from 10 mM stock solutions by serial dilutions in chemotaxis buffer. An equal volume of cells and compounds were mixed and incubated at room temperature for 15 minutes. Afterwards, 20 μL of the mixture was transferred onto the porous membrane of a migration microchamber, with 29 μL of chemokine ligand (0.1 nM chemokine MCP-1 protein for CCR2 assay or […] chemokine TECK protein for CCR9 assay) placed at the lower chamber. Following an incubation at 37° C. (90-minute for CCR2; 150-minute for CCR9), during which cells migrated against the chemokine gradient, the assay was terminated by removing the cell drops from atop the filter. To quantify cells migrated across the membrane, 5 μL of 7×CyQUANT® solution was added to each well in the lower chamber, and the fluorescence signal measured on a Spectrafluor Plus fluorescence plate reader (TECAN, Durham, N.C.). The degree of inhibition was determined by comparing migration signals between compound-treated and untreated cells. IC50 calculation was further performed by non-linear squares regression analysis using Graphpad Prism (Graphpad Software, San Diego, Calif.).
Calcium flux assay measures an increase in intracellular calcium following ligand-induced receptor activation. In the screen of chemokine antagonists, it was used as a secondary assay carried out on a FLIPR® machine (Molecular Devices, Mountain View, Calif.). To begin an assay, chemokine expressing cells (such as THP-1 cells for CCR2 assay or MOLT-4 cells for CCR9 assay) were harvested by centrifugation of cell suspension, and resuspended to 1.5×10^6 cells/mL in HBSS (with 1% fetal calf serum). Cells were then labeled with a calcium indicator dye Fluo-4 AM for 45 minutes at 37° C. with gentle shaking. Following incubation, cells were pelletted, washed once with HBSS and resuspended in the same buffer at a density of 1.6×10^6 cells/mL. One hundred microliters of labeled cells were mixed with 10 μL of test compound at the appropriate concentrations on an assay plate. Chemokine protein (MCP-1 at a final concentration of 0.1 nM for CCR2 assay or TECK at a final concentration of 25 nM for CCR9 assay) to activate the receptor. The degree of inhibition was determined by comparing calcium signals between compound-treated and untreated cells. IC50 calculations were further performed by non-linear squares regression analysis using Graphpad Prism (Graphpad Software, San Diego, Calif.).
Ligand binding assay was used to determine the ability of potential CCR2 antagonists to block the interaction between CCR2 and its ligand MCP-1. CCR2 expressing THP-1 cells were centrifuged and resuspended in assay buffer (20 mM HEPES pH 7.1, 140 mM NaCl, 1 mM CaCl2, 5 mM MgCl2, and with 0.2% bovine serum albumin) to a concentration of 2.2×10^5 cells/mL. Binding assays were set up as follows. […]

By IC50 is commonly meant the concentration that gives 50% inhibition.

For the molecule `NC(=O)c1nnc(-c2cc(F)c(Cl)cc2NS(=O)(=O)c2ccc(Cl)c(C(F)(F)F)c2)n1-c1cc[nH]n1` [Compound 161, 5-(4-chloro-2-(4-chloro-3-(trifluoromethyl)phenylsulfonamido)-5-fluorophenyl)-4-(1H-pyrazol-3-yl)-4H-1,2,4-triazole-3-carboxamide], the half-inhibitory concentration (IC50) was under 1000 nM.

On to `O=S(=O)(Nc1cc(Cl)c(F)cc1-c1nncn1-c1cc[nH]n1)c1ccc(Cl)c(C(F)(F)F)c1` [Compound 160, N-(2-(4-(1H-pyrazol-3-yl)-4H-1,2,4-triazol-3-yl)-5-chloro-4-fluorophenyl)-4-chloro-3-(trifluoromethyl)benzenesulfonamide], for which the half-inhibitory concentration (IC50) was under 1000 nM.

Regarding `Cc1nnc(-c2ccc(Cl)cc2NS(=O)(=O)c2ccc(Cl)c(C(F)(F)F)c2)n1-c1cc[nH]n1` [Compound 158], the half-inhibitory concentration (IC50) was under 1000 nM.
